Biological target: Aβ42 (Homo sapiens, UniProt P05067)
Experiment: Th-T (thioflavin-T) assay of Aβ42 aggregation
Type: biochemical
Settings: for Th-T fluorescence, mean of three wells: compound at 50

Aβ42, sequence (P05067 672-713): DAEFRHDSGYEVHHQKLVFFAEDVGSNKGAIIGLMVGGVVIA

SMILES: C=C1CC[C@@H]2[C@](C)(CC[C@H]3O[C@H](C=C(C)C)C[C@@]23C)[C@@H]1Cc1c(OC)oc(CO)c(C)c1=O [Compound 20]
- Th-T fluorescence, mean of three wells (reading M54 of time course): 2.134
- Th-T fluorescence, mean of three wells (reading M55 of time course): 2.09
- Th-T fluorescence, mean of three wells (reading M56 of time course): 2.129
- Th-T fluorescence, mean of three wells (reading M57 of time course): 2.102
- Th-T fluorescence, mean of three wells (reading M58 of time course): 2.115
- Th-T fluorescence, mean of three wells (reading M59 of time course): 2.0923
- Th-T fluorescence, mean of three wells (reading M60 of time course): 2.089
- Th-T fluorescence, mean of three wells (reading M61 of time course): 2.104
- Th-T fluorescence, mean of three wells (reading M62 of time course): 2.094
- Th-T fluorescence of Aβ42 with compound, mean of three wells (Fig. 7a source data) (concentration 10, unit not given, time-course reading M129): 3.179
- Th-T fluorescence of Aβ42 with compound, mean of three wells (Fig. 7a source data) (concentration 10, unit not given, time-course reading M130): 3.204
- Th-T fluorescence of Aβ42 with compound, mean of three wells (Fig. 7a source data) (concentration 10, unit not given, time-course reading M131): 3.189
- Th-T fluorescence of Aβ42 with compound, mean of three wells (Fig. 7a source data) (concentration 10, unit not given, time-course reading M132): 3.188
- Th-T fluorescence of Aβ42 with compound, mean of three wells (Fig. 7a source data) (concentration 10, unit not given, time-course reading M133): 3.166
- Th-T fluorescence of Aβ42 with compound, mean of three wells (Fig. 7a source data) (concentration 10, unit not given, time-course reading M134): 3.1894
- Th-T fluorescence of Aβ42 with compound, mean of three wells (Fig. 7a source data) (concentration 10, unit not given, time-course reading M135): 3.162
- Th-T fluorescence of Aβ42 with compound, mean of three wells (Fig. 7a source data) (concentration 10, unit not given, time-course reading M136): 3.159
- Th-T fluorescence of Aβ42 with compound, mean of three wells (Fig. 7a source data) (concentration 10, unit not given, time-course reading M137): 3.15
- Th-T fluorescence of Aβ42 with compound, mean of three wells (Fig. 7a source data) (concentration 10, unit not given, time-course reading M138): 3.16
- Th-T fluorescence of Aβ42 with compound, mean of three wells (Fig. 7a source data) (concentration 10, unit not given, time-course reading M139): 3.169
- Th-T fluorescence of Aβ42 with compound, mean of three wells (Fig. 7a source data) (concentration 10, unit not given, time-course reading M140): 3.158
- Th-T fluorescence of Aβ42 with compound, mean of three wells (Fig. 7a source data) (concentration 10, unit not given, time-course reading M141): 3.147
- Th-T fluorescence of Aβ42 with compound, mean of three wells (Fig. 7a source data) (concentration 10, unit not given, time-course reading M142): 3.131
- Th-T fluorescence of Aβ42 with compound, mean of three wells (Fig. 7a source data) (concentration 10, unit not given, time-course reading M143): 3.135
- Th-T fluorescence of Aβ42 with compound, mean of three wells (Fig. 7a source data) (concentration 10, unit not given, time-course reading M144): 3.139
- Th-T fluorescence of Aβ42 with compound, mean of three wells (Fig. 7a source data) (concentration 10, unit not given, time-course reading M145): 3.1201
- Th-T fluorescence of Aβ42 with compound, mean of three wells (Fig. 7a source data) (concentration 20, unit not given, time-course reading M129): 3.1
- Th-T fluorescence of Aβ42 with compound, mean of three wells (Fig. 7a source data) (concentration 20, unit not given, time-course reading M130): 3.095
- Th-T fluorescence of Aβ42 with compound, mean of three wells (Fig. 7a source data) (concentration 20, unit not given, time-course reading M131): 3.098
- Th-T fluorescence of Aβ42 with compound, mean of three wells (Fig. 7a source data) (concentration 20, unit not given, time-course reading M132): 3.079
- Th-T fluorescence of Aβ42 with compound, mean of three wells (Fig. 7a source data) (concentration 20, unit not given, time-course reading M133): 3.072
- Th-T fluorescence of Aβ42 with compound, mean of three wells (Fig. 7a source data) (concentration 20, unit not given, time-course reading M134): 3.073
- Th-T fluorescence of Aβ42 with compound, mean of three wells (Fig. 7a source data) (concentration 20, unit not given, time-course reading M135): 3.076
- Th-T fluorescence of Aβ42 with compound, mean of three wells (Fig. 7a source data) (concentration 20, unit not given, time-course reading M136): 3.0605
- Th-T fluorescence of Aβ42 with compound, mean of three wells (Fig. 7a source data) (concentration 20, unit not given, time-course reading M137): 3.049
- Th-T fluorescence of Aβ42 with compound, mean of three wells (Fig. 7a source data) (concentration 20, unit not given, time-course reading M138): 3.042
- Th-T fluorescence of Aβ42 with compound, mean of three wells (Fig. 7a source data) (concentration 20, unit not given, time-course reading M139): 3.041
- Th-T fluorescence of Aβ42 with compound, mean of three wells (Fig. 7a source data) (concentration 20, unit not given, time-course reading M140): 3.025
- Th-T fluorescence of Aβ42 with compound, mean of three wells (Fig. 7a source data) (concentration 20, unit not given, time-course reading M141): 3.02
- Th-T fluorescence of Aβ42 with compound, mean of three wells (Fig. 7a source data) (concentration 20, unit not given, time-course reading M142): 3.019
- Th-T fluorescence of Aβ42 with compound, mean of three wells (Fig. 7a source data) (concentration 20, unit not given, time-course reading M143): 3.013
- Th-T fluorescence of Aβ42 with compound, mean of three wells (Fig. 7a source data) (concentration 20, unit not given, time-course reading M144): 3.009
- Th-T fluorescence of Aβ42 with compound, mean of three wells (Fig. 7a source data) (concentration 20, unit not given, time-course reading M145): 2.993
- Th-T fluorescence of Aβ42 with compound, mean of three wells (Fig. 7a source data) (concentration 50, unit not given, time-course reading M129): 2.106
- Th-T fluorescence of Aβ42 with compound, mean of three wells (Fig. 7a source data) (concentration 50, unit not given, time-course reading M130): 2.116
- Th-T fluorescence of Aβ42 with compound, mean of three wells (Fig. 7a source data) (concentration 50, unit not given, time-course reading M131): 2.114
- Th-T fluorescence of Aβ42 with compound, mean of three wells (Fig. 7a source data) (concentration 50, unit not given, time-course reading M132): 2.119
- Th-T fluorescence of Aβ42 with compound, mean of three wells (Fig. 7a source data) (concentration 50, unit not given, time-course reading M133): 2.114
- Th-T fluorescence of Aβ42 with compound, mean of three wells (Fig. 7a source data) (concentration 50, unit not given, time-course reading M134): 2.123
- Th-T fluorescence of Aβ42 with compound, mean of three wells (Fig. 7a source data) (concentration 50, unit not given, time-course reading M135): 2.118
- Th-T fluorescence of Aβ42 with compound, mean of three wells (Fig. 7a source data) (concentration 50, unit not given, time-course reading M136): 2.117
- Th-T fluorescence of Aβ42 with compound, mean of three wells (Fig. 7a source data) (concentration 50, unit not given, time-course reading M137): 2.122
- Th-T fluorescence of Aβ42 with compound, mean of three wells (Fig. 7a source data) (concentration 50, unit not given, time-course reading M138): 2.119
- Th-T fluorescence of Aβ42 with compound, mean of three wells (Fig. 7a source data) (concentration 50, unit not given, time-course reading M139): 2.116
- Th-T fluorescence of Aβ42 with compound, mean of three wells (Fig. 7a source data) (concentration 50, unit not given, time-course reading M140): 2.117
- Th-T fluorescence of Aβ42 with compound, mean of three wells (Fig. 7a source data) (concentration 50, unit not given, time-course reading M141): 2.123
- Th-T fluorescence of Aβ42 with compound, mean of three wells (Fig. 7a source data) (concentration 50, unit not given, time-course reading M142): 2.118

— article PMC7156458, “Synthetic biology based construction of biological activity-related library of fungal decalin-containing diterpenoid pyrones” (Nature Communications, 2020)
